{"source": "patent US11666532B2", "about": "“Tranexamic acid oral solution” (Hyloris Developments SA, priority 2018, dated 2023)", "key": {"plasminogen": {"target": "plasminogen (Homo sapiens, UniProt P00747)", "sequence (P00747 20-810 limits assumed)": "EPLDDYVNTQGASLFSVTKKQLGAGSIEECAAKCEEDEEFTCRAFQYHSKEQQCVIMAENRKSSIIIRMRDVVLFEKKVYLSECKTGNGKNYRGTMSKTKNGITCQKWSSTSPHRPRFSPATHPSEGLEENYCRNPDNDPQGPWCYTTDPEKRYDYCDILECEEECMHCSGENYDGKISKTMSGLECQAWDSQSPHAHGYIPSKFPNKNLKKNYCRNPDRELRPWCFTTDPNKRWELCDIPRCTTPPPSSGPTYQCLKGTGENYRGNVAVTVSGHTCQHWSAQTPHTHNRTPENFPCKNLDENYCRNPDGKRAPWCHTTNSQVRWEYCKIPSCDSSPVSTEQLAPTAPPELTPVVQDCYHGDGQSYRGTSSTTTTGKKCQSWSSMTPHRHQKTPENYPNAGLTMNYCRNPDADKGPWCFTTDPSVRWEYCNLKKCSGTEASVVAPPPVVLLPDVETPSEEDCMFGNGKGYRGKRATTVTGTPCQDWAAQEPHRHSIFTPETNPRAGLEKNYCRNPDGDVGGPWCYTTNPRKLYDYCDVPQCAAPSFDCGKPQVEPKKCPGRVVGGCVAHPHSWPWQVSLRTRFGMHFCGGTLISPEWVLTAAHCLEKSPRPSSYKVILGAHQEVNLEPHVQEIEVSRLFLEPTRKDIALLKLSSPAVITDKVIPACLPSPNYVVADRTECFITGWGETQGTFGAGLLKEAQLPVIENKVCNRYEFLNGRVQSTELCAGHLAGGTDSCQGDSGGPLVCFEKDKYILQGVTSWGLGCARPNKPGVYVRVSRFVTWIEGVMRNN", "details": "cited from earlier work"}, "[1]": {"details": "cited from earlier work"}, "plasma protein": {"test_system": "plasma protein", "details": "cited from earlier work"}, "serum albumin": {"target": "serum albumin (Homo sapiens, UniProt P02768)", "sequence (P02768 25-609)": "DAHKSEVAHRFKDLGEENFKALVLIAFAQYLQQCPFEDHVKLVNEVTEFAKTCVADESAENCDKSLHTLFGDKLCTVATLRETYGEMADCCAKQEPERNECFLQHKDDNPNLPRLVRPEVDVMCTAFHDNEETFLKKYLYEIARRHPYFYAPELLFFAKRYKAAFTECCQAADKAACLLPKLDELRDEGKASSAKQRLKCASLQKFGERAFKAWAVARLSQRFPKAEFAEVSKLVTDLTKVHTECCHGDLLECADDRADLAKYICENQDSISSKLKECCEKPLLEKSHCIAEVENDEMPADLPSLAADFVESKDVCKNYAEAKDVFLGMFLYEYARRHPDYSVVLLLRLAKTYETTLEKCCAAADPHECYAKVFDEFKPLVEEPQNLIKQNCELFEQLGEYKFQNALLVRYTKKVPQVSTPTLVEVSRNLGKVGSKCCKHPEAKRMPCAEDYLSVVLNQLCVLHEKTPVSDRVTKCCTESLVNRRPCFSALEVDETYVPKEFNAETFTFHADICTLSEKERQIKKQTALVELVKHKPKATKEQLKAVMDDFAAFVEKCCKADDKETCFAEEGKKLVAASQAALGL", "details": "cited from earlier work"}, "[2]": {"test_system": "bleeding during or after dental procedures", "details": "local tranexamic acid as a supplement to systemic therapy; cited from earlier work"}, "[3]": {"test_system": "whole blood or citrated blood from normal subjects", "details": "cited from earlier work"}, "[4]": {"details": "cited from earlier work", "remark": "listed apart in the source"}, "[5]": {"experiment": "Binary mixtures study: discoloration at 60° C., visual inspection", "type": "physicochemical", "details": "binary mixture with TXA in phosphoric acid solution pH 5.5, glass vials, 60° C. oven, 2 weeks", "procedure": "To determine which components of the formulation were responsible for the discoloration, binary mixtures of TXA and each component were dissolved in phosphoric acid solution at pH 5.5 in amounts representative to their concentration in Formulation A of Table 1A.\nSamples of each mixture in Table 1B were placed in glass vials and stored in 60° C. oven for 2 weeks and visually inspected periodically for discoloration. The samples from Table 1B containing TXA and Sorbitol (sample 5), or TXA and Glycerin (sample 3), or TXA and Poloxamer 407 (sample 6), or TXA and spearmint flavor F-4785, turned yellow. Thus sorbitol, glycerin, poloxamer 407 and spearmint flavor were considered to be the ingredients responsible for the discoloration of formula A.\nBinary mixtures of TXA and alternative surfactants were prepared and samples were stored in a 60° C. oven to test for discoloration as described in Table 2.\nBinary mixtures of Na CMC and TXA were prepared and stored at 60° C. for 2 weeks to test for discoloration as in Table 3."}, "[6]": {"details": "after oral and intravenous administration"}, "[7]": {"details": "four doses of 10-20 mg per kg body weight 36-48 hours before surgery"}, "[8]": {"details": "three hours after a single oral dose of 25 mg per kg body weight"}}, "note": "Like-named read-outs stand apart in the source and are kept apart here."}
{"compound": "NC[C@H]1CC[C@H](C(=O)O)CC1", "note": "[tranexamic acid, trans-4-(aminomethyl) cyclohexanecarboxylic acid]", "values": [{"measurement": "binding to strong and weak sites in the plasminogen molecule relative to epsilon aminocaproic acid (EACA)", "setting": "plasminogen", "value": "considerably more strongly"}, {"measurement": "excretion", "setting": "[1]; 24 hours after oral administration of 10-15 mg per kg body weight", "value": 39, "unit": "%"}, {"measurement": "concentration in fetal serum", "setting": "[1]; after intravenous injection of 10 mg per kg body weight", "value": "about 30 μg per mL"}, {"measurement": "acetylated product excreted", "setting": "[1]; after oral administration", "value": "~0.5", "unit": "%"}, {"measurement": "deaminated dicarboxylic acid excreted", "setting": "[1]; after oral administration", "value": "~2", "unit": "%"}, {"measurement": "parent compound excreted", "setting": "[1]; after oral administration", "value": "approximately 50%"}, {"measurement": "fibrinolytic activity of the semen", "setting": "[1]; [6]", "value": "inhibits"}, {"measurement": "motility of the spermatozoa", "setting": "[1]; [6]", "value": "without affecting"}, {"measurement": "passage into the semen", "setting": "[1]; [6]", "value": "passes into the semen"}, {"measurement": "concentration in breast milk relative to corresponding serum levels", "setting": "[1]; during lactation", "value": "1/100"}, {"measurement": "plasma concentration", "setting": "[1]; five hours after intravenous 10 mg per kg body weight", "value": 5, "unit": "μg per mL"}, {"measurement": "time an antifibrinolytically active concentration (10 μg/mL) remained in the serum", "setting": "[1]; [7]", "value": "7 to 8", "unit": "h"}, {"measurement": "time an antifibrinolytically active concentration (10 μg/mL) remained in the tissues investigated", "setting": "[1]; [7]", "value": "up to 17 hours"}, {"measurement": "biological half-life in the joint fluid", "setting": "[1]; in vivo", "value": "about 3 hours"}, {"measurement": "concentration in the joint fluid compared with the serum", "setting": "[1]; in vivo", "value": "same concentration"}, {"measurement": "dose excreted in the urine as unchanged drug", "setting": "[1]; in vivo", "value": "more than 95%"}, {"measurement": "fraction of the drug metabolized", "setting": "[1]; in vivo", "value": "less than 5%"}, {"measurement": "placental transfer", "setting": "[1]; in vivo", "value": "crosses the placenta"}, {"measurement": "half-life for the terminal elimination phase", "setting": "[1]; intravenous dose of 1 g", "value": "about 2 hours"}, {"measurement": "plasma concentration", "setting": "[1]; one hour after intravenous 10 mg per kg body weight", "value": 18.3, "unit": "μg per mL"}, {"measurement": "excretion", "setting": "[1]; one hour after intravenous administration of 10 mg per kg body weight", "value": "about 30%"}, {"measurement": "excretion", "setting": "[1]; one hour after oral administration of 10-15 mg per kg body weight", "value": 1, "unit": "%"}, {"measurement": "effect of food intake on bioavailability", "setting": "[1]; oral", "value": "not affected"}, {"measurement": "ability to cross the blood-brain barrier", "setting": "[1]; patients with ruptured intracranial aneurysms", "value": "has been demonstrated"}, {"measurement": "aqueous humor level", "setting": "[1]; [8]", "value": 1.6, "unit": "mg per L"}, {"measurement": "peak serum level", "setting": "[1]; [8]", "value": 15.4, "unit": "mg per L"}, {"measurement": "plasma concentration", "setting": "[1]; three hours after intravenous 10 mg per kg body weight", "value": 9.6, "unit": "μg per mL"}, {"measurement": "excretion", "setting": "[1]; three hours after intravenous administration of 10 mg per kg body weight", "value": "~55", "unit": "%"}, {"measurement": "excretion", "setting": "[1]; three hours after oral administration of 10-15 mg per kg body weight", "value": 7, "unit": "%"}, {"measurement": "plasma protein binding", "setting": "plasma protein; at therapeutic plasma levels of 5-10 mg/L", "value": "negligible"}, {"measurement": "plasma protein binding", "setting": "plasma protein; at therapeutic plasma levels", "value": "about 3%"}, {"measurement": "binding to serum albumin", "setting": "serum albumin", "value": "does not bind"}, {"measurement": "incidence of bleeding during or after dental procedures (postoperative bleeding)", "setting": "[2]", "value": "significantly reduces"}, {"measurement": "thrombin time", "setting": "[3]; concentrations of 1 mg to 10 mg per mL blood", "value": "prolongs"}, {"measurement": "influence on the platelet count, the coagulation time, or various coagulation factors", "setting": "[3]; concentrations up to 10 mg per mL blood, whole blood or citrated blood from normal subjects", "value": "no influence"}, {"measurement": "concentrations in saliva, initially", "setting": "[4]; after mouth rinse", "value": "above 200 μg per mL"}, {"measurement": "plasma concentrations", "setting": "[4]; after mouth rinse", "value": "below 2 μg per mL"}, {"measurement": "time saliva concentrations remained above therapeutic levels", "setting": "[4]; after mouth rinse", "value": "more than 2 hours"}, {"measurement": "saliva levels", "setting": "[4]; after oral administration, any time point", "value": "undetectable"}, {"measurement": "maximum mean plasma concentration", "setting": "[4]; after oral administration", "value": "~7", "unit": "μg per mL"}, {"measurement": "time to maximum mean plasma concentration", "setting": "[4]; after oral administration", "value": 120, "unit": "min"}]}
{"compound": "alpha-D-Glucopyranoside, beta-D-fructofuranosyl, monooctadecanoate [Sucrose Stearate]", "values": [{"measurement": "Discoloration", "setting": "[5]", "value": "did not dissolve into solution"}]}
{"compound": "beta-D-Fructofuranosyl-alpha-D-glucopyranoside, monododecanoate [Sucrose Laurate]", "values": [{"measurement": "Discoloration", "setting": "[5]", "value": "didn't cause discoloration"}]}
{"compound": "polyoxyethylene (20)sorbitan monooleate [Tween 80]", "values": [{"measurement": "Discoloration", "setting": "[5]", "value": "didn't cause discoloration"}]}
{"compound": "polyoxyethylene sorbitan monolaurate [Tween 20]", "values": [{"measurement": "Discoloration", "setting": "[5]", "value": "didn't cause discoloration"}]}
